Test results: US8247211B2, “Glycopeptide antibiotics” (American Cyanamid Company, priority 2001, dated 2012)
Converted amounts (≈) assume the structure as drawn.

Experiments:
Test in all cases: In vitro antibacterial evaluation: minimum inhibitory concentration (MIC), broth dilution method
Assay type in all cases: cell-based
Streptococcus sp. = conditions: 18 hours at 35° C.
Procedure, shortened: (§1)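 Values are minimum inhibitory concentrations, meaning the smallest antibiotic concentration that stops growth of the organism. They come from broth dilution in Muller-Hinton II […] per NCCLS guidance (M7-A2), using 5×10^5 CFU/mL and concentrations from 64 to 0.06 μg/mL.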

Enterococcus sp. = conditions: 18 hours at 35° C.
Procedure, shortened: as §1

Escherichia coli = conditions: 18 hours at 35° C.
Procedure, shortened: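 MIC read as lowest drug level preventing visible growth. Organisms at 5×10^5 CFU/mL were exposed to a 64-0.06 μg/mL dilution series in Muller-Hinton II […] following NCCLS broth dilution standard M7-A2.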

Staphylococcus sp. = tested on: Staphylococcus sp.
Procedure, shortened: as §1

[1] = broth dilution, inoculum 5×10^5 CFU/mL

- MIC Streptococcus agalactiae (GC 4564) (Streptococcus sp.; Streptococcus agalactiae (GC 4564)): 0.12 µg/mL (≈ 0.0864 µM)
- MIC Streptococcus pneumoniae (ATCC 6301) (Streptococcus sp.; Streptococcus pneumoniae (ATCC 6301)): <0.06 µg/mL
- MIC Streptococcus pneumoniae (GC 1894) (Streptococcus sp.; Streptococcus pneumoniae (GC 1894)): <0.06 µg/mL
- MIC Streptococcus pneumoniae (GC 4565) (Streptococcus sp.; Streptococcus pneumoniae (GC 4565)): <0.06 µg/mL
- MIC Streptococcus pyogenes (GC 4563) (Streptococcus sp.; Streptococcus pyogenes (GC 4563)): <0.06 µg/mL
- MIC Streptococcus agalactiae (GC 4564) (Streptococcus sp.; [1]): 0.12 µg/mL (≈ 0.0864 µM)
- MIC Streptococcus pneumoniae (ATCC 6301) (Streptococcus sp.; [1]): <0.06 µg/mL
- MIC Streptococcus pneumoniae (GC 1894) (Streptococcus sp.; [1]): <0.06 µg/mL
- MIC Streptococcus pneumoniae (GC 4565) (Streptococcus sp.; [1]): <0.06 µg/mL
- MIC Streptococcus pyogenes (GC 4563) (Streptococcus sp.; [1]): <0.06 µg/mL
- MIC Enterococcus avium (GC 4558) (Enterococcus sp.; Enterococcus avium (GC 4558)): 4 µg/mL (≈ 2.88 µM)
- MIC Enterococcus faecalis (ATCC 29212) (Enterococcus sp.; Enterococcus faecalis (ATCC 29212)): 4 µg/mL (≈ 2.88 µM)
- MIC Enterococcus faecalis (GC 2242) (Enterococcus sp.; Enterococcus faecalis (GC 2242)): 0.5 µg/mL (≈ 0.36 µM)
- MIC Enterococcus faecalis (GC 2691) (Enterococcus sp.; Enterococcus faecalis (GC 2691)): 4 µg/mL (≈ 2.88 µM)
- MIC Enterococcus faecalis (GC 3059) (Enterococcus sp.; Enterococcus faecalis (GC 3059)): 2 µg/mL (≈ 1.44 µM)
- MIC Enterococcus faecalis (GC 4552) (Enterococcus sp.; Enterococcus faecalis (GC 4552)): 2 µg/mL (≈ 1.44 µM)
- MIC Enterococcus faecalis (GC 4553) (Enterococcus sp.; Enterococcus faecalis (GC 4553)): 4 µg/mL (≈ 2.88 µM)
- MIC Enterococcus faecalis (GC 4554) (Enterococcus sp.; Enterococcus faecalis (GC 4554)): 4 µg/mL (≈ 2.88 µM)
- MIC Enterococcus faecalis (GC 6189) (Enterococcus sp.; Enterococcus faecalis (GC 6189)): 2 µg/mL (≈ 1.44 µM)
- MIC Enterococcus faecium (GC 2243) (Enterococcus sp.; Enterococcus faecium (GC 2243)): 4 µg/mL (≈ 2.88 µM)
- MIC Enterococcus faecium (GC 4556) (Enterococcus sp.; Enterococcus faecium (GC 4556)): 4 µg/mL (≈ 2.88 µM)
- MIC Enterococcus faecium (GC 4557) (Enterococcus sp.; Enterococcus faecium (GC 4557)): 2 µg/mL (≈ 1.44 µM)
- MIC Enterococcus avium (GC 4558) (Enterococcus sp.; [1]): 4 µg/mL (≈ 2.88 µM)
- MIC Enterococcus faecalis (ATCC 29212) (Enterococcus sp.; [1]): 4 µg/mL (≈ 2.88 µM)
- MIC Enterococcus faecalis (GC 2242) (Enterococcus sp.; [1]): 0.5 µg/mL (≈ 0.36 µM)
- MIC Enterococcus faecalis (GC 2691) (Enterococcus sp.; [1]): 4 µg/mL (≈ 2.88 µM)
- MIC Enterococcus faecalis (GC 3059) (Enterococcus sp.; [1]): 2 µg/mL (≈ 1.44 µM)
- MIC Enterococcus faecalis (GC 4552) (Enterococcus sp.; [1]): 2 µg/mL (≈ 1.44 µM)
- MIC Enterococcus faecalis (GC 4553) (Enterococcus sp.; [1]): 4 µg/mL (≈ 2.88 µM)
- MIC Enterococcus faecalis (GC 4554) (Enterococcus sp.; [1]): 4 µg/mL (≈ 2.88 µM)
- MIC Enterococcus faecalis (GC 6189) (Enterococcus sp.; [1]): 2 µg/mL (≈ 1.44 µM)
- MIC Enterococcus faecium (GC 2243) (Enterococcus sp.; [1]): 4 µg/mL (≈ 2.88 µM)
- MIC Enterococcus faecium (GC 4556) (Enterococcus sp.; [1]): 4 µg/mL (≈ 2.88 µM)
- MIC Enterococcus faecium (GC 4557) (Enterococcus sp.; [1]): 2 µg/mL (≈ 1.44 µM)
- MIC Escherichia coli (ATCC 25922) (Escherichia coli; Escherichia coli (ATCC 25922)): 32 µg/mL (≈ 23 µM)
- MIC Escherichia coli (GC 4559) (Escherichia coli; Escherichia coli (GC 4559)): 32 µg/mL (≈ 23 µM)
- MIC Escherichia coli (GC 4560) (Escherichia coli; Escherichia coli (GC 4560)): 1 µg/mL (≈ 0.72 µM)
- MIC Staphylococcus aureus (ATCC 29213) (Staphylococcus sp.; strain ATCC 29213): 1 µg/mL (≈ 0.72 µM)
- MIC Staphylococcus aureus (GC 1131) (Staphylococcus sp.; strain GC 1131): 2 µg/mL (≈ 1.44 µM)
- MIC Staphylococcus aureus (GC 3051) (Staphylococcus sp.; strain GC 3051): 1 µg/mL (≈ 0.72 µM)
- MIC Staphylococcus aureus (GC 3053) (Staphylococcus sp.; strain GC 3053): 2 µg/mL (≈ 1.44 µM)
- MIC Staphylococcus aureus (GC 4541) (Staphylococcus sp.; strain GC 4541): 1 µg/mL (≈ 0.72 µM)
- MIC Staphylococcus aureus (GC 4542) (Staphylococcus sp.; strain GC 4542): 1 µg/mL (≈ 0.72 µM)
- MIC Staphylococcus aureus-SMITH (GC 4543) (Staphylococcus sp.; strain GC 4543): 1 µg/mL (≈ 0.72 µM)
- MIC Staphylococcus aureus (GC 4544) (Staphylococcus sp.; strain GC 4544): 2 µg/mL (≈ 1.44 µM)
- MIC Staphylococcus aureus (GC 4545) (Staphylococcus sp.; strain GC 4545): 1 µg/mL (≈ 0.72 µM)
- MIC Coagulase Negative Staphylococcus (GC 4547) (Staphylococcus sp.; strain GC 4547): 2 µg/mL (≈ 1.44 µM)
- MIC Coagulase Negative Staphylococcus (GC 4548) (Staphylococcus sp.; strain GC 4548): 1 µg/mL (≈ 0.72 µM)
- MIC Coagulase Negative Staphylococcus (GC 4549) (Staphylococcus sp.; strain GC 4549): 1 µg/mL (≈ 0.72 µM)
- MIC Coagulase Negative Staphylococcus (GC 4551) (Staphylococcus sp.; strain GC 4551): 2 µg/mL (≈ 1.44 µM)
SMILES: N=C1NCC(C(O)C2NC(=O)C(Cc3ccc(OC4OC(CO)C(OC5OC6COC(Cc7ccccc7)OC6C(O)C5O)C(O)C4O)cc3)NC(=O)C(CC3CCCCC3)NC(=O)CNC(=O)C(CO)NC(=O)C(C(O)C3CNC(=N)N3C3OC(CO)C(O)C(O)C3O)NC2=O)N1 (stereo not drawn) [Example 200, Cyclo[3-cyclohexylalanyl-O-[4-O-[4,6-O-phenethylidene-hexopyranosyl]hexopyranosyl]tyrosyl-3-(2-iminoimidazolidin-4-yl)seryl-3-(3-hexopyranosyl-2-iminoimidazolidin-4-yl)serylserylglycyl]]
- MIC Staphylococcus haemolyticus (GC 4546) (Staphylococcus sp.; strain GC 4546): 1 µg/mL (≈ 0.72 µM)
